Experimental data published in PubChem BioAssay AID248 (DTP/NCI, 2004).
Toxic doses and inconclusive results are not listed. Rule as the data show it: active = T/C of 150% or more; inactive = T/C below 125%.

System: L1210 leukemia ip in BDF1 mice, survival T/C
Experiment: NCI In Vivo Anticancer Drug Screen. Data for tumor model L1210 Leukemia (intraperitoneal) in B6D2F1 (BDF1) mice
Conditions: endpoint: mean survival time, higher = longer survival
Procedure, shortened: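 Value reflects the ratio of survival in compound-treated mice to survival in vehicle-treated controls, with both groups carrying the same transplanted tumor.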

[1] = dose: 100.0 mg/kg/injection, schedule: Q04DX003 (ip), vehicle: Klucel (hydroxypropylcellulose) (HPC)
[2] = dose: 400.0 mg/kg/injection, schedule: Q04DX003 (ip), vehicle: Klucel (hydroxypropylcellulose) (HPC)
[3] = dose: 100.0 mg/kg/injection, schedule: Q01DX009 (ip), vehicle: saline with Tween-80
[4] = dose: 100.0 mg/kg/injection, schedule: Q04DX003 (ip), vehicle: saline with Tween-80
[5] = dose: 200.0 mg/kg/injection, schedule: Q01DX009 (ip), vehicle: saline with Tween-80
[6] = dose: 200.0 mg/kg/injection, schedule: Q04DX003 (ip), vehicle: saline with Tween-80
[7] = dose: 400.0 mg/kg/injection, schedule: Q01DX009 (ip), vehicle: saline with Tween-80
[8] = dose: 400.0 mg/kg/injection, schedule: Q04DX003 (ip), vehicle: saline with Tween-80
[9] = dose: 100.0 mg/kg/injection, schedule: Q01DX001 (ip), vehicle: carboxymethylcellulose (CMC)
[10] = dose: 200.0 mg/kg/injection, schedule: Q01DX001 (ip), vehicle: carboxymethylcellulose (CMC)
[11] = dose: 400.0 mg/kg/injection, schedule: Q01DX001 (ip), vehicle: carboxymethylcellulose (CMC)
[12] = dose: 200.0 mg/kg/injection, schedule: Q04DX003 (ip), vehicle: Klucel (hydroxypropylcellulose) (HPC)
[13] = dose: 100.0 mg/kg/injection, schedule: Q01DX001 (ip), vehicle: saline with Tween-80
[14] = dose: 200.0 mg/kg/injection, schedule: Q01DX001 (ip), vehicle: saline with Tween-80
[15] = dose: 400.0 mg/kg/injection, schedule: Q01DX001 (ip), vehicle: saline with Tween-80
[16] = dose: 100.0 mg/kg/injection, schedule: Q04DX002 (ip), vehicle: Klucel (hydroxypropylcellulose) (HPC)
[17] = dose: 200.0 mg/kg/injection, schedule: Q04DX002 (ip), vehicle: Klucel (hydroxypropylcellulose) (HPC)
[18] = dose: 400.0 mg/kg/injection, schedule: Q04DX002 (ip), vehicle: Klucel (hydroxypropylcellulose) (HPC)
[19] = dose: 100.0 mg/kg/injection, schedule: Q01DX009 (ip), vehicle: Klucel (hydroxypropylcellulose) (HPC)
[20] = dose: 200.0 mg/kg/injection, schedule: Q01DX009 (ip), vehicle: Klucel (hydroxypropylcellulose) (HPC)
[21] = dose: 400.0 mg/kg/injection, schedule: Q01DX009 (ip), vehicle: Klucel (hydroxypropylcellulose) (HPC)

Measured: T/C

O=C(CNC(=O)C(CSCc1ccccc1)NC(=O)OCc1ccccc1)OCc1ccccc1 (configuration not stated)
inactive: dose: 25.0 mg/kg/injection, schedule: Q01DX009 (ip), vehicle: gum acacia 92 % of control | dose: 50.0 mg/kg/injection, schedule: Q01DX009 (ip), vehicle: gum acacia 87 % of control | dose: 100.0 mg/kg/injection, schedule: Q01DX009 (ip), vehicle: gum acacia 94 % of control | [1] 89 % of control | [2] 99 % of control

O=C(O)C(O)(c1ccccc1)C(O)c1ccccc1 (configuration not stated)
inactive: [3] 113 % of control | [4] 100 % of control | [5] 97 % of control | [6] 100 % of control | [7] 98 % of control | [8] 95 % of control

C#CC(NCCC(C)CC(C)(C)C)C(C)C (configuration not stated)
inactive: [4] 103 % of control | [6] 90 % of control

Cc1ccc(-c2cc(=S)ss2)cc1
inactive: [9] 100 % of control | [10] 92 % of control | [11] 94 % of control

O=[N+]([O-])CC1(O)CCCCC1
inactive: dose: 25.0 mg/kg/injection, schedule: Q01DX009 (ip), vehicle: Klucel (hydroxypropylcellulose) (HPC) 97 % of control | dose: 50.0 mg/kg/injection, schedule: Q01DX009 (ip), vehicle: Klucel (hydroxypropylcellulose) (HPC) 98 % of control

CCCCCCCCCCCCCCS
inactive: dose: 200.0 mg/kg/injection, schedule: Q01DX Z (ip), vehicle: methylcellulose (MC) 116 % of control | dose: 225.0 mg/kg/injection, schedule: Q01DX Z (ip), vehicle: methylcellulose (MC) 108 % of control | dose: 450.0 mg/kg/injection, schedule: Q01DX Z (ip), vehicle: methylcellulose (MC) 104 % of control | dose: 675.0 mg/kg/injection, schedule: Q01DX Z (ip), vehicle: methylcellulose (MC) 103 % of control

Cc1[nH]c(=O)[nH]c(=O)c1S(=O)(=O)O
inactive: [1] 98 % of control | [12] 93 % of control | [2] 98 % of control

O=C(NCc1ccccc1)C(F)(F)F
inactive: [13] 102 % of control | [14] 102 % of control | [15] 100 % of control

O=C(OCCN1C(=O)c2cccc3c(Br)ccc(c23)C1=O)OCc1ccccc1
inactive: dose: 100.0 mg/kg/injection, schedule: Q04DX002 (ip), vehicle: alcohol 103 % of control | dose: 200.0 mg/kg/injection, schedule: Q04DX002 (ip), vehicle: alcohol 100 % of control | dose: 400.0 mg/kg/injection, schedule: Q04DX002 (ip), vehicle: alcohol 100 % of control

CCCCCCCCCCCCCCCCCSc1cccc(C)c1
inactive: [1] 93 % of control | [12] 88 % of control

Nc1nccnc1N
inactive: dose: 50.0 mg/kg/injection, schedule: Q01DX009 (ip), vehicle: saline 103 % of control | dose: 100.0 mg/kg/injection, schedule: Q01DX001 (ip), vehicle: saline 102 % of control | dose: 100.0 mg/kg/injection, schedule: Q01DX009 (ip), vehicle: saline 105 % of control | dose: 200.0 mg/kg/injection, schedule: Q01DX001 (ip), vehicle: saline 96 % of control

CC(C)CC(N)C(=O)NCCCl (configuration not stated)
inactive: dose: 30.0 mg/kg/injection, schedule: Q01DX Z (ip), vehicle: saline 88 % of control | dose: 100.0 mg/kg/injection, schedule: Q01DX Z (ip), vehicle: saline 102 % of control | dose: 300.0 mg/kg/injection, schedule: Q01DX Z (ip), vehicle: saline 88 % of control

C1=C(/c2ccccc2)CCCCCC/1
inactive: dose: 37.5 mg/kg/injection, schedule: Q01DX009 (ip), vehicle: saline 101 % of control | dose: 75.0 mg/kg/injection, schedule: Q01DX001 (ip), vehicle: acetone 98 % of control | dose: 75.0 mg/kg/injection, schedule: Q01DX009 (ip), vehicle: saline 90 % of control | dose: 150.0 mg/kg/injection, schedule: Q01DX001 (ip), vehicle: acetone 93 % of control | dose: 150.0 mg/kg/injection, schedule: Q01DX009 (ip), vehicle: saline 103 % of control | dose: 300.0 mg/kg/injection, schedule: Q01DX001 (ip), vehicle: acetone 91 % of control

NC(=O)c1cc([N+](=O)[O-])ccc1Cl
inactive: [4] 97 % of control | [6] 97 % of control | [8] 101 % of control

O=C1CC(c2ccccc2)(c2ccccc2)c2cc(-c3ccccc3)c(-c3ccccc3)cc21
inactive: [16] 106 % of control | [17] 103 % of control | [18] 95 % of control

CC(C)(C(=O)O)c1ccccc1
inactive: [13] 96 % of control | [14] 96 % of control | [15] 96 % of control

CSc1ncnc2c1ncn2N1CCCC1
inactive: dose: 75.0 mg/kg/injection, schedule: Q01DX001 (ip), vehicle: other 101 % of control | dose: 150.0 mg/kg/injection, schedule: Q01DX001 (ip), vehicle: other 97 % of control | dose: 300.0 mg/kg/injection, schedule: Q01DX001 (ip), vehicle: other 98 % of control

O=S1(=O)CC2(N3CCCCC3)CCCCC21 (configuration not stated)
inactive: dose: 5.0 mg/kg/injection, schedule: Q01DX009 (ip), vehicle: saline 94 % of control | dose: 10.0 mg/kg/injection, schedule: Q01DX009 (ip), vehicle: saline 96 % of control

CCCCCCCCC(=O)N1C(C)CCCC1C (configuration not stated)
inactive: dose: 100.0 mg/kg/injection, schedule: Q04DX002 (ip), vehicle: saline 111 % of control | dose: 200.0 mg/kg/injection, schedule: Q04DX002 (ip), vehicle: saline 114 % of control | dose: 400.0 mg/kg/injection, schedule: Q04DX002 (ip), vehicle: saline 100 % of control

Nc1ccccc1SCCC(=O)O
inactive: dose: 37.5 mg/kg/injection, schedule: Q04DX003 (ip), vehicle: Klucel (hydroxypropylcellulose) (HPC) 96 % of control | dose: 75.0 mg/kg/injection, schedule: Q01DX009 (ip), vehicle: saline with Tween-80 106 % of control | dose: 75.0 mg/kg/injection, schedule: Q04DX003 (ip), vehicle: Klucel (hydroxypropylcellulose) (HPC) 86 % of control | dose: 150.0 mg/kg/injection, schedule: Q01DX009 (ip), vehicle: saline with Tween-80 105 % of control | dose: 150.0 mg/kg/injection, schedule: Q04DX003 (ip), vehicle: Klucel (hydroxypropylcellulose) (HPC) 91 % of control | dose: 300.0 mg/kg/injection, schedule: Q01DX009 (ip), vehicle: saline with Tween-80 98 % of control | dose: 300.0 mg/kg/injection, schedule: Q04DX003 (ip), vehicle: Klucel (hydroxypropylcellulose) (HPC) 96 % of control

Cc1ccc(N=Nc2ccc(C)cc2NC(=O)Nc2ccccc2F)cc1
inactive: [19] 104 % of control | [20] 97 % of control | [21] 88 % of control

CCOC(=O)Nc1cc(NC(c2ccccc2)c2ccccc2)c([N+](=O)[O-])c(NC/C(C)=N/NC(N)=O)n1
inactive: [9] 95 % of control | [10] 93 % of control | [11] 89 % of control

O=c1cc(-c2ccccc2)ss1
inactive: [19] 100 % of control | [3] 101 % of control | [4] 102 % of control | [20] 102 % of control | [5] 97 % of control | [6] 102 % of control | [21] 105 % of control | [7] 96 % of control | [8] 103 % of control

CC1=C(OS(=O)(=O)c2ccc(C)cc2)CCCC1=O
inactive: dose: 50.0 mg/kg/injection, schedule: Q01DX009 (ip), vehicle: saline with Tween-80 100 % of control | [3] 100 % of control | [5] 88 % of control

COc1cc(Cl)ccc1NC(=S)Nc1ccccc1
inactive: [16] 97 % of control | [17] 101 % of control | [18] 97 % of control

O=[N+]([O-])c1cccc(S(=O)(=O)NNc2cc(C(F)(F)F)ccc2Cl)c1
inactive: dose: 100.0 mg/kg/injection, schedule: Q01DX001 (ip), vehicle: Klucel (hydroxypropylcellulose) (HPC) 93 % of control | [1] 92 % of control | dose: 200.0 mg/kg/injection, schedule: Q01DX001 (ip), vehicle: Klucel (hydroxypropylcellulose) (HPC) 94 % of control | [12] 87 % of control | dose: 400.0 mg/kg/injection, schedule: Q01DX001 (ip), vehicle: Klucel (hydroxypropylcellulose) (HPC) 98 % of control | [2] 100 % of control
